# From article PMC7265429, “Characterization of a new small-molecule inhibitor of HDAC6 in glioblastoma” (Cell Death & Disease, 2020)
# Test system: GNS166 cells
# Test: Microarray whole-transcriptome gene expression analysis
# Format: cell-based, human
# Procedure: Whole-transcriptome analysis was performed from 300 ng of RNA using HuGene-2_0-st-v1 expression array (Affymetrix), which covers 48,226 transcripts. Raw data were first checked for quality purposes through the Affymetrix® Expression Console™ Software v1.4.1 and TAC software v4.0. Then, data were normalized using the Robust Multi-array Average (RMA) and analyzed by Limma tool. Probesets with FDR-corrected p-values smaller than 0.05 were selected. Functional enrichment on Gene Ontology (GO) biological processes was performed on a smaller subset of the differentially expressed genes (corrected p-value < 0.001) by means of Broad Institute GSEA. […] The data that support this study have been deposited in NCBI´s Gene Expression Omnibus and are accessible through GEO series accession number GSE143887.
# [1] = sheet DMSO-SAHA_DOWN, microarray
smiles,measurement,setting,value
"O=C(CCCCCCC(=O)Nc1ccccc1)NO [SAHA, Suberoylanilide hydroxamic acid]",logFC TTC7B (transcript TC1400009967.hg.1),[1],-1.063
same,logFC TTC28 (transcript TC2200008356.hg.1),[1],-1.091
same,logFC TXNDC15 (transcript TC0500008705.hg.1),[1],-1.511
same,logFC USE1 (transcript TC1900007313.hg.1),[1],-1.0842
same,logFC VCAN (transcript TC0500007972.hg.1),[1],-1.305
same,logFC YAP1 (transcript TC1100008904.hg.1),[1],-1.463
same,logFC ZDHHC4 (transcript TC0700006649.hg.1),[1],-0.9579
same,logFC ZNF43 (transcript TC1900010163.hg.1),[1],-0.8461
same,logFC ZNF107 (transcript TC0700013370.hg.1),[1],-1.056
same,logFC ZNF805 (transcript TC1900008988.hg.1),[1],-0.8747
same,logFC geneSymbol NA (transcript 23064083),[1],-1.061
same,logFC geneSymbol NA (transcript 23066345),[1],-1.581
same,logFC geneSymbol NA (transcript 23066351),[1],-1.258
same,logFC geneSymbol NA (transcript 23066370),[1],-1.256
same,logFC geneSymbol NA (transcript 23066378),[1],-1.258
same,logFC geneSymbol NA (transcript 23075414),[1],-1.568
same,logFC geneSymbol NA (transcript 23075613),[1],-0.9478
same,logFC geneSymbol NA (transcript 23075631),[1],-0.8653
same,logFC geneSymbol NA (transcript 23075715),[1],-0.9535
same,logFC geneSymbol NA (transcript 23075786),[1],-0.9478
same,logFC geneSymbol NA (transcript 23075802),[1],-0.9222
same,logFC geneSymbol NA (transcript 23075888),[1],-0.8842
same,logFC geneSymbol NA (transcript 23075961),[1],-0.9103
same,logFC geneSymbol NA (transcript 23076100),[1],-0.9321
same,logFC geneSymbol NA (transcript 23076182),[1],-0.9773
same,logFC geneSymbol NA (transcript 23076263),[1],-0.9293
same,logFC geneSymbol NA (transcript 23076348),[1],-0.9199
same,logFC geneSymbol NA (transcript 23076424),[1],-0.8654
same,logFC geneSymbol NA (transcript 23076493),[1],-0.9827
same,logFC geneSymbol NA (transcript HTA2-pos-3670232_st),[1],-0.8727
same,logFC geneSymbol NA (transcript HTA2-pos-3670240_st),[1],-1.133
same,logFC geneSymbol NA (transcript HTA2-pos-PSR05023592.hg.1),[1],-0.8946
same,logFC geneSymbol NA (transcript HTA2-pos-PSR05035203.hg.1),[1],-1.027
same,logFC geneSymbol NA (transcript HTA2-pos-PSR17008061.hg.1),[1],-0.9289
same,logFC geneSymbol NA (transcript HTA2-pos-PSR17008062.hg.1),[1],-0.8972
same,logFC geneSymbol NA (transcript HTA2-pos-PSR17008080.hg.1),[1],-0.8914
same,logFC geneSymbol NA (transcript HTA2-pos-PSR17008100.hg.1),[1],-0.9888
same,logFC geneSymbol NA (transcript HTA2-pos-PSR17013956.hg.1),[1],-1.322
same,logFC geneSymbol NA (transcript HTA2-pos-PSR19006615.hg.1),[1],-0.8048
same,logFC transcript 23071521 (geneSymbol NA),"transcript 23071521, DMSO vs 5 µM SAHA, upregulated genes",0.9492
same,logFC transcript 23074028 (geneSymbol NA),"transcript 23074028, DMSO vs 5 µM SAHA, upregulated genes",1.15
same,logFC REPS2,"transcript TC0X00006704.hg.1, DMSO vs 5 µM SAHA, upregulated genes",2.016
same,logFC FAM3C2,"transcript TC0X00006789.hg.1, DMSO vs 5 µM SAHA, upregulated genes",1.058
same,logFC TMEM35,"transcript TC0X00007935.hg.1, DMSO vs 5 µM SAHA, upregulated genes",1.065
same,logFC SMIM10,"transcript TC0X00008492.hg.1, DMSO vs 5 µM SAHA, upregulated genes",1.0804
same,logFC CDR1,"transcript TC0X00008596.hg.1, DMSO vs 5 µM SAHA, upregulated genes",2.1035
same,logFC GEMIN8,"transcript TC0X00009107.hg.1, DMSO vs 5 µM SAHA, upregulated genes",1.085
same,logFC TAB3,"transcript TC0X00009339.hg.1, DMSO vs 5 µM SAHA, upregulated genes",0.8188
same,logFC TMEM255A,"transcript TC0X00010670.hg.1, DMSO vs 5 µM SAHA, upregulated genes",1.002
same,logFC DCAF6,"transcript TC0100010518.hg.1, DMSO vs 5 µM SAHA, upregulated genes",0.8028
same,logFC LAMC1,"transcript TC0100010863.hg.1, DMSO vs 5 µM SAHA, upregulated genes",1.035
same,logFC PPP2R5A,"transcript TC0100011520.hg.1, DMSO vs 5 µM SAHA, upregulated genes",0.853
same,logFC VASH2,"transcript TC0100011552.hg.1, DMSO vs 5 µM SAHA, upregulated genes",1.211
same,logFC FRRS1,"transcript TC0100015049.hg.1, DMSO vs 5 µM SAHA, upregulated genes",1.197
same,logFC PLD5,"transcript TC0100017957.hg.1, DMSO vs 5 µM SAHA, upregulated genes",1.018
same,logFC FPGT-TNNI3K,"transcript TC0100018235.hg.1, DMSO vs 5 µM SAHA, upregulated genes",1.058
same,logFC PPP1R21,"transcript TC0200007535.hg.1, DMSO vs 5 µM SAHA, upregulated genes",1.2457
same,logFC ACVR2A,"transcript TC0200009596.hg.1, DMSO vs 5 µM SAHA, upregulated genes",1.001
same,logFC ACSL3,"transcript TC0200010907.hg.1, DMSO vs 5 µM SAHA, upregulated genes",1.082
same,logFC PIGF,"transcript TC0200012489.hg.1, DMSO vs 5 µM SAHA, upregulated genes",1.027
same,logFC RND3,"transcript TC0200014597.hg.1, DMSO vs 5 µM SAHA, upregulated genes",0.9455
same,logFC ACVR1C,"transcript TC0200014694.hg.1, DMSO vs 5 µM SAHA, upregulated genes",1.493
same,logFC CMTM8,"transcript TC0300006961.hg.1, DMSO vs 5 µM SAHA, upregulated genes",0.9182
same,logFC RNF13,"transcript TC0300009147.hg.1, DMSO vs 5 µM SAHA, upregulated genes",1.125
same,logFC RAP2B,"transcript TC0300009229.hg.1, DMSO vs 5 µM SAHA, upregulated genes",0.867
same,logFC TIPARP,"transcript TC0300009282.hg.1, DMSO vs 5 µM SAHA, upregulated genes",0.8784
same,logFC PPM1L,"transcript TC0300009353.hg.1, DMSO vs 5 µM SAHA, upregulated genes",1.659
same,logFC POLR2H,"transcript TC0300009706.hg.1, DMSO vs 5 µM SAHA, upregulated genes",0.9753
same,logFC SLC9A9,"transcript TC0300012686.hg.1, DMSO vs 5 µM SAHA, upregulated genes",2.129
same,logFC TNIK,"transcript TC0300013108.hg.1, DMSO vs 5 µM SAHA, upregulated genes",1.27
same,logFC EFHB,"transcript TC0300013950.hg.1, DMSO vs 5 µM SAHA, upregulated genes",1.411
same,logFC DGKG,"transcript TC0300014083.hg.1, DMSO vs 5 µM SAHA, upregulated genes",2.595
same,logFC BMP2K,"transcript TC0400007938.hg.1, DMSO vs 5 µM SAHA, upregulated genes",0.9344
same,logFC NPNT,"transcript TC0400008331.hg.1, DMSO vs 5 µM SAHA, upregulated genes",1.698
same,logFC HHIP,"transcript TC0400008892.hg.1, DMSO vs 5 µM SAHA, upregulated genes",1.6713
same,logFC KIAA0922,"transcript TC0400009038.hg.1, DMSO vs 5 µM SAHA, upregulated genes",1.219
same,logFC ETFDH,"transcript TC0400009132.hg.1, DMSO vs 5 µM SAHA, upregulated genes",0.9226
same,logFC CLCN3,"transcript TC0400009284.hg.1, DMSO vs 5 µM SAHA, upregulated genes",0.8527
same,logFC FAM175A,"transcript TC0400011208.hg.1, DMSO vs 5 µM SAHA, upregulated genes",1.331
same,logFC PAPSS1,"transcript TC0400011538.hg.1, DMSO vs 5 µM SAHA, upregulated genes",0.9468
same,logFC ETNPPL,"transcript TC0400011563.hg.1, DMSO vs 5 µM SAHA, upregulated genes",1.856
same,logFC PDE5A,"transcript TC0400011712.hg.1, DMSO vs 5 µM SAHA, upregulated genes",1.355
same,logFC RAPGEF2,"transcript TC0400012856.hg.1, DMSO vs 5 µM SAHA, upregulated genes",1.1527
same,logFC FAM105A,"transcript TC0500006816.hg.1, DMSO vs 5 µM SAHA, upregulated genes",1.369
same,logFC SLC36A1,"transcript TC0500009123.hg.1, DMSO vs 5 µM SAHA, upregulated genes",0.9929
same,logFC ARL15,"transcript TC0500010731.hg.1, DMSO vs 5 µM SAHA, upregulated genes",2.128
same,logFC GLRX,"transcript TC0500011497.hg.1, DMSO vs 5 µM SAHA, upregulated genes",0.987
same,logFC NME5,"transcript TC0500012160.hg.1, DMSO vs 5 µM SAHA, upregulated genes",1.606
same,logFC PCDH1,"transcript TC0500012294.hg.1, DMSO vs 5 µM SAHA, upregulated genes",1.432
